# Assay results: patent US20060233738A1, “Composition for promoting production of type 1 collagen and/or elastin” (priority 2003, published 2006)
# Experiments:
# Format in all cases: cell-based
# [1] = tested on: type I collagen; test: Promotion of type I collagen production in a three-dimensional human skin model (TESTSKIN LSE-high); details: concentration 0.05% in dipropylene glycol, 2 x 24 hours
# Excerpt: (§1) Three-dimensional human skin models are widely used in safety evaluations and effectiveness evaluations as pseudo human skins. In this evaluation, TESTSKIN (LSE-high) (manufactured by Toyobo) was used as a three-dimensional human skin model, and cultured in accordance with the protocol specified in the attached document. Silybum marianum extract containing 70% silymarin (manufactured by Indina), soybean lecithin (manufactured by Wako Pure Chemical Industries) and retinoic acid (all-trans-retinoic acid manufactured by Wako Pure Chemical Industries) were dissolved to respective concentrations in dipropylene glycol (manufactured by Wako Pure Chemical Industries). […]
# (§2) Next, 60 μl of each tested substance was added to tissues in an assay ring and the tissues were cultured for 24 hours. […] Protein in the sample was determined using a DC protein assay kit (manufactured by Bio-Rad Laboratories) based on the Lowry method (Non-patent Literature 11), and 20 mM Tris-HCl (pH 7.5) was added to achieve 2 μg/μl. […]
# The obtained sample was used to evaluate the property to promote type I collagen production using the western blotting method. […] The obtained substance was washed, and then detected using ECL plus western blotting detection reagent (manufactured by Amersham Biosciences). […]
# [2] = tested on: elastin; test: Promotion of elastin production in a three-dimensional human skin model (TESTSKIN LSE-high); details: concentration 0.05% in dipropylene glycol, 2 x 24 hours
# Excerpt: as §1, §2
# In the same manner as described in the aforementioned evaluation of the property to promote type I collagen production in a three-dimensional human skin model, the property to promote elastin production was evaluated using a three-dimensional human skin model.
# [3] = tested on: elastin; test: Promotion of elastin production in normal human skin fibroblast cells (western blotting, image analysis); details: NFB cells, 24 hours
# Protocol: (§3) Each compound was dissolved in DMSO to produce a stock solution, and an appropriate amount of each stock solution was added to a culture solution and applied to cells. By following the same procedure, a stock solution was prepared by dissolving silymarin (silymarin group manufactured by Sigma-Aldrich) in the aforementioned DMSO, and an appropriate amount of the stock solution was added to a culture solution to check the effect of adding silymarin.
# (§4) Normal human skin fibroblast cells (hereinafter referred to as “NFB”), provided as CCD1059 (purchased from Dainippon Pharmaceutical), were cultured in a skin fibroblast cell culture medium (FGM manufactured by Sanko Junyaku) at 37° C. in a 5% CO2 incubator. FGM was prepared by adding a human skin fibroblast cell growth factor (1 μg/ml), insulin ([…]), gentamycin (50 μg/ml) and amphotericin B (50 μg/ml) to a base fibroblast cell culture medium. This test used cells whose passage number was 3 to 7. […]
# (§5) Protein in the sample was separated by SDS-PAGE and transferred to a nitrocellulose membrane. […] The obtained substance was washed, and then detected using ECL plus western blotting detection reagent (manufactured by Amersham Biosciences). The detected band was scanned using an image scanner (manufactured by Amersham Biosciences) and analyzed using image master software to produce numerical data.
# [4] = tested on: type I collagen; test: Promotion of type I collagen production in normal human skin fibroblast cells (western blotting, image analysis); details: NFB cells, 24 hours
# Protocol: as §3, §4, §5
smiles,measurement,setting,value
"CC1=C(/C=C/C(C)=C/C=C/C(C)=C/C(=O)O)C(C)(C)CCC1 [Retinoic acid, all-trans-retinoic acid]",Relative expression level (full-length type I collagen),[1],2.0
same,Relative expression level (full-length elastin),[2],3.3
same,Ratio to untreated control (full-length elastin),[3]; treated concentration 250 nM,2.8
same,Ratio to untreated control (full-length elastin),[3]; treated concentration 500 nM,1.4
same,Ratio to untreated control (full-length type I collagen),[4]; treated concentration 250 nM,2.0
same,Ratio to untreated control (full-length type I collagen),[4]; treated concentration 500 nM,1.4
